# Earlier results, collected in patent US10377741B2, “Substituted heteroaryl aldehyde compounds and methods for their use in increasing tissue oxygenation” (Global Blood Therapeutics, Inc., priority 2011, dated 2019).
# What was measured:
# human HbS = details: transgenic mice producing human HbS, cited from earlier work
# hemoglobin = hemoglobin (Homo sapiens, UniProt P68871+P69905); details: in vitro and in vivo; cited from earlier work
# hemoglobin, sequence (P69905 2-142 limits assumed): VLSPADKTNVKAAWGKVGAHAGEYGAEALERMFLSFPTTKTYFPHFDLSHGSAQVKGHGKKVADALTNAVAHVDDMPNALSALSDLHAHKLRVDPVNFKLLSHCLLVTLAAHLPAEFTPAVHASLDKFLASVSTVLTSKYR
# hemoglobin, sequence (P68871 2-147 limits assumed): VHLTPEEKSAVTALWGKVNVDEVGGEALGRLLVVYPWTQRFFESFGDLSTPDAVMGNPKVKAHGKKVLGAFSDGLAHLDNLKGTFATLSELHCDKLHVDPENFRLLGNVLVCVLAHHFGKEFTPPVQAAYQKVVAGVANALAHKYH
compound,measurement,setting,value
"O=Cc1ccc(CO)o1 [Compound 5HMF, 5-hydroxymethyl-2-furfuraldehyde]",survival times,human HbS; extreme hypoxia (5% oxygen),significantly improved survival times
same,hypoxia-induced sickled red blood cells,"human HbS; hypoxic conditions, compared to the non-treated mice",reduced amounts of hypoxia-induced sickled red blood cells
same,hemoglobin modulator activity,hemoglobin,potent hemoglobin modulator both in vitro and in vivo
